Each structure is given as a SMILES string. Numbered stars: 1 amine (or outer) side, 2 acyl side, 3 side chain; on linkers, the order of the positions; unused ones are H or OH. Bridge positions count the residues as written; N and C are the ends. Square brackets hold non-standard residues; d marks the D form. Peptide text beside a SMILES is read from it. * marks the point of attachment. ξ: configuration not given here. Bip(4'-COOH) = N[C@@H](Cc1ccc(-c2ccc(C(=O)O)cc2)cc1)C(=O)O; Bip(4'-NHAc) = CC(=O)Nc1ccc(-c2ccc(C[C@H](N)C(=O)O)cc2)cc1; X20 = CC(NC[C@H](N[*:1])C(=O)[*:2])=C1C(=O)CC(C)(C)CC1=O; Phe(3-CF3) = N[C@@H](Cc1cccc(C(F)(F)F)c1)C(=O)O; Ala(morpholin-4-yl) = N[C@@H](CN1CCOCC1)C(=O)O; Phe(4-CONH2) = NC(=O)c1ccc(C[C@H](N)C(=O)O)cc1; Phe(4-COOH) = N[C@@H](Cc1ccc(C(=O)O)cc1)C(=O)O; Bip = N[C@@H](Cc1ccc(-c2ccccc2)cc1)C(=O)O; Phe(3-Me) = Cc1cccc(C[C@H](N)C(=O)O)c1; Val(3-OH) = CC(C)(O)[C@H](N)C(=O)O; X11 = CC(N)[C@H](N[*:1])C(=O)[*:2]; hArg = N=C(N)NCCCC[C@H](N)C(=O)O; hPhe = N[C@@H](CCc1ccccc1)C(=O)O; Cha = N[C@@H](CC1CCCCC1)C(=O)O; Thr(3ξ) = CC(O)[C@H](N)C(=O)O; Propanoyl(3-OH) = O=C(CCO)*; Carboxymethyl = O=C(O)C*; NMeA = CN[C@@H](C)C(=O)O; Orn = NCCC[C@H](N)C(=O)O; Dab = NCC[C@H](N)C(=O)O; Dap = NC[C@H](N)C(=O)O; X43 = c1coc(N*)n1

The target of the first assay is T1, Alexa fluor-647 labeled human PD-L1-Ig binding to Jurkat cell line over-expressing human PD-1 (Homo sapiens, UniProt Q15116).
T1 construct: expressed in transfected cells; host or cells: Jurkat
T1 sequence (Q15116 25-288): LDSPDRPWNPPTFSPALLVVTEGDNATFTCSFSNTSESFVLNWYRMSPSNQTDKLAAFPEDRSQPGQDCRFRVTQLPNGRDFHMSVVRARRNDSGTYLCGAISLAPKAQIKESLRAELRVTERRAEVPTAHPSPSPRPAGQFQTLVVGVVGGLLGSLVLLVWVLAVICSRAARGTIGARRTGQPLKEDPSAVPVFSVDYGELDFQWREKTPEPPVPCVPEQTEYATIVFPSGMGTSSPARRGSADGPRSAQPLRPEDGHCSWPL
Nature of the assay: Jurkat-PD-1 Cell Binding High-Content Screening Assay (CBA): Method 3 (Alexa fluor-647 labeled PD-L1-Ig). Conditions: Jurkat-PD-1 cells, Alexa fluor-647 labeled PD-L1-Ig 177 nM; head μM; read-out: CBA Method 3 μM. The protocol:
Jurkat-PD-1 Cell Binding High-Content Screening Assay (CBA): Method 3
Alexa fluor-647 was covalently linked to the Ig epitope tag of human PD-L1-Ig and fluorescently labeled PD-L1-Ig was used for the binding studies with a Jurkat cell line over-expressing human PD-1. Briefly, 2.5×10^4 Jurkat-hPD-1 cells were seeded into 384 well plates in 20 μl of RPMI supplemented with 10% fetal calf serum. 12.5 nl of compound was added to cells followed by incubation at 37° C. for 2 hours. Then, 10 ul of Alexa fluor-647 labeled PD-L1-Ig (177 nM final), diluted in RPMI supplemented with 10% fetal calf serum was added to the cells and incubated for 1 hour. Cells were then fixed with 4% paraformaldehyde containing 10 μg/ml Hoechst 33342 and then washed 3× in 100 ul PBS and 100 ul of PBS was added in the final step. Data was collected using the Operetta High Content Imager and the data was analyzed using the columbus software.
In the case of `Cc1cccc(C[C@@H]2NC(=O)[C@H](CC(=O)O)NC(=O)[C@H](Cc3ccc(OCC(=O)O)cc3)NC(=O)[C@H](CCCCNC(=N)N)NC(=O)CSC[C@@H](C(=O)N[C@@H](CCN)C(N)=O)NC(=O)[C@H](CO)NC(=O)[C@H](C(C)(C)O)NC(=O)[C@H](CC3CCCCC3)NC(=O)[C@H](CCN)NC(=O)[C@@H](CC(C)C)NC(=O)[C@H](C)N(C)C(=O)[C@H](CCC(N)=O)NC(=O)[C@H](Cc3ccc(-c4ccccc4)cc3)NC(=O)[C@H](CCc3ccccc3)NC2=O)c1` [Example 5282] ({CH2CO}-[hArg]Y(Carboxymethyl)D[Phe(3-Me)][hPhe][Bip]Q[NMeA][dL][Dab][Cha][Val(3-OH)]SC[Dab]-NH2; thioether N-14), the IC50 stood at 0.17 µM. The same measure, in the same setting: in the case of `CC(C)C[C@H]1NC(=O)[C@H](C)N(C)C(=O)[C@H](Cc2ccc(C(N)=O)cc2)NC(=O)[C@H](Cc2ccc(-c3ccccc3)cc2)NC(=O)[C@H](Cc2ccc(OCC(=O)O)cc2)NC(=O)[C@H](Cc2cccc(C(F)(F)F)c2)NC(=O)[C@H](CC(=O)O)NC(=O)[C@H](Cc2ccc(O)cc2)NC(=O)[C@H](CN2CCOCC2)NC(=O)CSC[C@@H](C(=O)N[C@@H](CCN)C(N)=O)NC(=O)[C@H](CCCN)NC(=O)[C@H](C(C)C)NC(=O)[C@H](CC2CCCCC2)NC(=O)[C@H](CCN)NC1=O` [Example 5262] ({CH2CO}-[Ala(morpholin-4-yl)]YD[Phe(3-CF3)]Y(Carboxymethyl)[Bip][Phe(4-CONH2)][NMeA][dL][Dab][Cha]V[Orn]C[Dab]-NH2; thioether N-14) it was 0.11 µM. In the case of `CC(NC[C@@H]1NC(=O)[C@H](Cc2ccc(C(=O)O)cc2)NC(=O)[C@H](CN2CCOCC2)NC(=O)CSC[C@@H](C(=O)N[C@@H](CCN)C(N)=O)NC(=O)[C@H](CCCN)NC(=O)[C@H](C(C)C)NC(=O)[C@H](CC2CCCCC2)NC(=O)[C@H](CCN)NC(=O)[C@@H](CC(C)C)NC(=O)[C@H](C)N(C)C(=O)[C@H](CCC(N)=O)NC(=O)[C@H](Cc2ccc(-c3ccccc3)cc2)NC(=O)[C@H](Cc2ccc(C(=O)O)cc2)NC(=O)[C@H](Cc2cccc(C(F)(F)F)c2)NC1=O)=C1C(=O)CC(C)(C)CC1=O` [Example 5105] ({CH2CO}-[Ala(morpholin-4-yl)][Phe(4-COOH)][X20][Phe(3-CF3)][Phe(4-COOH)][Bip]Q[NMeA][dL][Dab][Cha]V[Orn]C[Dab]-NH2; thioether N-14), the IC50 is 0.02 µM. The same measure, in the same setting: in the case of `CC(C)C[C@H]1NC(=O)[C@H](C)N(C)C(=O)[C@H](CCCN)NC(=O)[C@H](Cc2ccc(-c3ccccc3)cc2)NC(=O)[C@H](Cc2ccc(-c3ccc(C(=O)O)cc3)cc2)NC(=O)[C@H](Cc2cccc(C(F)(F)F)c2)NC(=O)[C@H](CC(=O)Nc2ncco2)NC(=O)[C@H](Cc2ccc(-c3ccc(C(=O)O)cc3)cc2)NC(=O)[C@H](Cc2ccc(OCC(=O)O)cc2)NC(=O)CSC[C@@H](C(=O)N[C@@H](CCN)C(N)=O)NC(=O)[C@H](CC(N)=O)NC(=O)[C@H](C(C)C)NC(=O)[C@H](CC2CCCCC2)NC(=O)[C@H](CCN)NC1=O` [Example 5116] ({CH2CO}-Y(Carboxymethyl)[Bip(4'-COOH)]D(X43)[Phe(3-CF3)][Bip(4'-COOH)][Bip][Orn][NMeA][dL][Dab][Cha]VNC[Dab]-NH2; thioether N-14) it was 0.33 µM.

Staying with this assay, now noted: Jurkat-PD-1 cells, Alexa fluor-647 labeled PD-L1-Ig 177 nM; nM; read-out: CBA Method 3.
In the case of `Cc1cccc(C[C@@H]2NC(=O)[C@H](CC(=O)O)NC(=O)[C@H](Cc3ccc(OCC(=O)O)cc3)NC(=O)[C@H](CCCN)NC(=O)CSC[C@@H](C(=O)N[C@@H](CCN)C(N)=O)NC(=O)[C@H](CCCN)NC(=O)[C@H](C(C)C)NC(=O)[C@H](CC3CCCCC3)NC(=O)[C@H](CCN)NC(=O)[C@@H](CC(C)C)NC(=O)[C@H](C)N(C)C(=O)[C@H](CCC(N)=O)NC(=O)[C@H](Cc3ccc(-c4ccccc4)cc3)NC(=O)[C@H](Cc3ccc(C(=O)O)cc3)NC2=O)c1` [Example 5180] ({CH2CO}-[Orn]Y(Carboxymethyl)D[Phe(3-Me)][Phe(4-COOH)][Bip]Q[NMeA][dL][Dab][Cha]V[Orn]C[Dab]-NH2; thioether N-14), the IC50 was 0.0068 µM. The same measure, in the same setting: in the case of `CC(C)C[C@H]1NC(=O)[C@H](C)N(C)C(=O)[C@H](Cc2ccc(OCC(=O)O)cc2)NC(=O)[C@H](Cc2ccc(-c3ccccc3)cc2)NC(=O)[C@H](Cc2ccc(C(=O)O)cc2)NC(=O)[C@H](Cc2cccc(C(F)(F)F)c2)NC(=O)[C@H](CC(=O)O)NC(=O)[C@H](Cc2ccc(OCC(=O)O)cc2)NC(=O)[C@H](C(C)O)NC(=O)CSC[C@@H](C(=O)N[C@@H](CCN)C(N)=O)NC(=O)[C@H]([C@@H](C)O)NC(=O)[C@H](C(C)C)NC(=O)[C@H](CC2CCCCC2)NC(=O)[C@H](CCN)NC1=O` (stereo partly drawn) [Example 5143] ({CH2CO}-[Thr(3ξ)]Y(Carboxymethyl)D[Phe(3-CF3)][Phe(4-COOH)][Bip]Y(Carboxymethyl)[NMeA][dL][Dab][Cha]VTC[Dab]-NH2; thioether N-14) it was 0.007 µM; in that of `Cc1cccc(C[C@@H]2NC(=O)[C@H](CC(=O)O)NC(=O)[C@H](Cc3ccc(OCC(=O)O)cc3)NC(=O)[C@H](C(C)(C)O)NC(=O)CSC[C@@H](C(=O)N[C@@H](CCN)C(N)=O)NC(=O)[C@H](CCCN)NC(=O)[C@H](C(C)C)NC(=O)[C@H](CC3CCCCC3)NC(=O)[C@H](CCN)NC(=O)[C@@H](CC(C)C)NC(=O)[C@H](C)N(C)C(=O)[C@H](CCC(N)=O)NC(=O)[C@H](Cc3ccc(-c4ccccc4)cc3)NC(=O)[C@H](Cc3ccc(C(=O)O)cc3)NC2=O)c1` [Example 5275] ({CH2CO}-[Val(3-OH)]Y(Carboxymethyl)D[Phe(3-Me)][Phe(4-COOH)][Bip]Q[NMeA][dL][Dab][Cha]V[Orn]C[Dab]-NH2; thioether N-14), 0.0016 µM. The same measure, in the same setting: in the case of `CC(=O)Nc1ccc(-c2ccc(C[C@@H]3NC(=O)[C@H](Cc4cccc(C(F)(F)F)c4)NC(=O)[C@H](CC(=O)O)NC(=O)[C@H](Cc4ccc(C(=O)O)cc4)NC(=O)[C@H](C(C)N)NC(=O)CSC[C@@H](C(=O)N[C@@H](CCN)C(N)=O)NC(=O)[C@H](CNC(=O)CCO)NC(=O)[C@H](C(C)C)NC(=O)[C@H](CC4CCCCC4)NC(=O)[C@H](CCN)NC(=O)[C@@H](CC(C)C)NC(=O)[C@H](C)N(C)C(=O)[C@H](Cc4ccc(C(N)=O)cc4)NC(=O)[C@H](Cc4ccc(-c5ccccc5)cc4)NC3=O)cc2)cc1` (stereo partly drawn) [Example 5148] ({CH2CO}-[X11][Phe(4-COOH)]D[Phe(3-CF3)][Bip(4'-NHAc)][Bip][Phe(4-CONH2)][NMeA][dL][Dab][Cha]V[Dap](Propanoyl(3-OH))C[Dab]-NH2; thioether N-14) it was 0.0009 µM; in that of `Cc1cccc(C[C@@H]2NC(=O)[C@H](CC(=O)O)NC(=O)[C@H](Cc3ccc(OCC(=O)O)cc3)NC(=O)[C@H](C)NC(=O)CSC[C@@H](C(=O)N[C@@H](CCN)C(N)=O)NC(=O)[C@H](CCCN)NC(=O)[C@H](C(C)C)NC(=O)[C@H](CC3CCCCC3)NC(=O)[C@H](CCN)NC(=O)[C@@H](CC(C)C)NC(=O)[C@H](C)N(C)C(=O)[C@H](CCC(N)=O)NC(=O)[C@H](Cc3ccc(-c4ccccc4)cc3)NC(=O)[C@H](Cc3ccc(C(=O)O)cc3)NC2=O)c1` [Example 5266] ({CH2CO}-AY(Carboxymethyl)D[Phe(3-Me)][Phe(4-COOH)][Bip]Q[NMeA][dL][Dab][Cha]V[Orn]C[Dab]-NH2; thioether N-14), 0.002 µM; in that of `CC(C)C[C@@H]1NC(=O)[C@H](Cc2c[nH]c3ccccc23)NC(=O)[C@H](CC(=O)O)NC(=O)[C@H](Cc2ccc(-c3ccc(C(=O)O)cc3)cc2)NC(=O)[C@H](CN2CCOCC2)NC(=O)CSC[C@@H](C(=O)N[C@@H](CCN)C(N)=O)NC(=O)[C@H](CCC(=O)O)NC(=O)[C@H](C(C)C)NC(=O)[C@H](CC(C)C)NC(=O)[C@H](CC(N)=O)NC(=O)[C@@H](CC(C)C)NC(=O)[C@H](C)N(C)C(=O)[C@H](C(C)C)NC(=O)[C@H](Cc2ccc(-c3ccccc3)cc2)NC1=O` [Example 5124] ({CH2CO}-[Ala(morpholin-4-yl)][Bip(4'-COOH)]DWL[Bip]V[NMeA][dL]NLVEC[Dab]-NH2; thioether N-14), 0.0026 µM. Still for that read-out and setting: in the case of `CC(C)C[C@H]1NC(=O)[C@H](C)N(C)C(=O)[C@H](Cc2ccc(OCC(=O)O)cc2)NC(=O)[C@H](Cc2ccc(-c3ccccc3)cc2)NC(=O)[C@H](Cc2ccc(OCC(=O)O)cc2)NC(=O)[C@H](Cc2c[nH]c3ccccc23)NC(=O)[C@H](CC(=O)O)NC(=O)[C@H](Cc2ccc(-c3ccc(C(=O)O)cc3)cc2)NC(=O)[C@H](CN2CCOCC2)NC(=O)CSC[C@@H](C(=O)N[C@@H](CCN)C(N)=O)NC(=O)[C@H](CCC(=O)O)NC(=O)[C@H](C(C)C)NC(=O)[C@H](CC2CCCCC2)NC(=O)[C@H](CCN)NC1=O` [Example 5117] ({CH2CO}-[Ala(morpholin-4-yl)][Bip(4'-COOH)]DWY(Carboxymethyl)[Bip]Y(Carboxymethyl)[NMeA][dL][Dab][Cha]VEC[Dab]-NH2; thioether N-14) it was 0.0097 µM; in that of `Cc1cccc(C[C@@H]2NC(=O)[C@H](CC(=O)O)NC(=O)[C@H](Cc3ccc(OCC(=O)O)cc3)NC(=O)[C@H](Cc3cnc[nH]3)NC(=O)CSC[C@@H](C(=O)N[C@@H](CCN)C(N)=O)NC(=O)[C@H](CCCN)NC(=O)[C@H](C(C)C)NC(=O)[C@H](CC3CCCCC3)NC(=O)[C@H](CCN)NC(=O)[C@@H](CC(C)C)NC(=O)[C@H](C)N(C)C(=O)[C@H](CCC(N)=O)NC(=O)[C@H](Cc3ccc(-c4ccccc4)cc3)NC(=O)[C@H](Cc3ccc(C(=O)O)cc3)NC2=O)c1` [Example 5274] ({CH2CO}-HY(Carboxymethyl)D[Phe(3-Me)][Phe(4-COOH)][Bip]Q[NMeA][dL][Dab][Cha]V[Orn]C[Dab]-NH2; thioether N-14), 0.006 µM.
